Experimental data published in PMC10154443, “Peptide-based PET imaging agent of tumor TIGIT expression” (EJNMMI Research, 2023).
Where a SMILES comes first, the peptide text is derived from it. [ ]: non-standard residue; d: D form. The star is where a group is joined. DOTA = O=C(O)CN1CCN(CC(=O)O)CCN(CC(=O)*)CCN(CC(=O)O)CC1; Ahx = NCCCCCC(=O)O

Key:
[1] = tested on: A375 cells; assay: cell uptake experiment, A375 cells; assay type: cell-based, human; settings: A375 cells (low TIGIT expression), at 0.5 h; time points 15, 30, 60, 120 min; γ-count
Experimental: (§1) For cell uptake experiments, 4T1 and A375 cells were incubated with ^68Ga-DOTA-^DTBP-3 at different time points (15, 30, 60 and 120 min), respectively. Then, the cells were washed 3 times with cold PBS, and 0.1 M NaOH solution was used to lyse the cells and collected for γ-count.

[2] = tested on: 4T1 tumor-bearing BALB/c mice; assay type: in vivo
Experimental: (§2) Female BALB/c mice of 4–5 weeks were purchased from Beijing Biotechnology Co., Ltd. (Beijing, China). The 4T1 murine cancer model was established by the injection of 3 × 10^5 cells/150 μl into the front right limbs of female BALB/c mice. Experiments started when the tumors reached a volume of approximately 250–350 mm^3.
Female BALB/c tumor-bearing mice with subcutaneous 4T1 xenografts were randomly divided into 2 groups (n = 9 for the experimental group, and n = 3 for the blocking group), and then were injected with 3.70 MBq of ^68Ga-DOTA-^DTBP-3 via the tail vein. At different time points (0.5, 1 and 2 h post-injection for the experimental group, 0.5 h post-injection for the blocking group), the mice were euthanized, and the tumor, main organs (muscle, bone, large intestine, small intestine, stomach, kidney, spleen, liver, lung, heart, brain) and blood were weighed and counted by a γ counter. The results are expressed as percentage injected dose per gram of tissue (% ID/g), and the values were calculated based on signal decay correction and normalization to external ^68Ga standards.

[3] = tested on: 4T1 cells; assay: cell uptake experiment, 4T1 cells; assay type: cell-based, murine
Experimental: as §1

[4] = tested on: 4T1 tumor-bearing BALB/c mice; assay type: in vivo; remark: listed apart in the source
Experimental: as §2
PET images were acquired on a micro-PET scanner (InliView-3000B, Minfound, Hangzhou, China). Mice bearing subcutaneous tumors were anesthetized with isoflurane (1.0–1.5%) and then were injected with about 5.55 MBq of ^68Ga-DOTA-^DTBP-3 via the tail vein. In the blocking group, tumor-bearing BALB/c were pretreated with the 40-fold excess of ^DTBP-3 for 0.5 h, and then injected equal dose of radiotracer with the above groups. Static imaging (15 min) was collected at different time points (0.5, 1 and 2 h post-injection).

Q: `CC(C)C[C@@H](NC(=O)[C@@H](CCCNC(=N)N)NC(=O)[C@@H](Cc1c[nH]cn1)NC(=O)[C@@H](Cc1c[nH]c2ccccc12)NC(=O)[C@@H](Cc1c[nH]cn1)NC(=O)[C@@H](Cc1ccccc1)NC(=O)[C@H](NC(=O)[C@@H](Cc1ccc(O)cc1)NC(=O)CNC(=O)CNC(=O)CCCCCNC(=O)CN1CCN(CC(=O)O)CCN(CC(=O)O)CCN(CC(=O)O)CC1)[C@H](C)O)C(=O)N[C@H](CC(N)=O)C(=O)N1CCC[C@@H]1C(=O)O` [^68Ga-DOTA-^DTBP-3, metal not drawn] ({DOTA-Ahx}-GG[dY][dT][dF][dH][dW][dH][dR][dL][dN][dP]-OH; N-terminus and C-terminus assumed) was tested. Which “cell uptake of radiotracer (highest)” value [1] did it give?
A: Its value is 2.56 ± 0.19%.

Q: What about the “tumor-to-blood ratio (biodistribution)” value ([2]; 0.5 h post-injection) of the same compound?
A: The value was “high”.

Q: And the “tumor-to-muscle ratio (biodistribution)” value ([2]; 0.5 h post-injection)?
A: Its value is “high”.

Q: What about the “clearance from the blood” value ([2]; mouse, in vivo) of the same compound?
A: The value was “quickly cleared”.

Q: And the “cell uptake of radiotracer (highest)” value ([3]; 4T1 cells (high TIGIT expression), at 0.5 h, time points 15, 30, 60, 120 min, γ-count)?
A: The value was 8.41 ± 1.22%.

Q: What about the “4T1 cellular uptake with excess unlabeled ^DTBP-3 (blocking)” value ([3]; 4T1 cells, excess unlabeled ^DTBP-3) of the same compound?
A: Its value is “could be blocked”.

Q: What about the “tumor uptake on micro-PET” value ([4]; 4T1 tumor, 0.5 h after intravenous injection, about 5.55 MBq, n = 3) of the same compound?
A: Its value is 3.49 ± 0.14.

Q: And the “tumor uptake on micro-PET, blocking group” value ([4]; 4T1 tumor-bearing mice pretreated with 40-fold excess unlabeled ^DTBP-3 for 0.5 h)?
A: The value was “no obvious uptake”.

Q: And the “time of peak uptake of tumor tissue” value ([4]; mouse, in vivo)?
A: The value was “about 0.5 h”.
